Values quoted from earlier work in US9744163B2, “Compositions of a polyorthoester and an aprotic solvent” (Heron Therapeutics, Inc., priority 2013, dated 2017).

In the case of `CCOC(C)=O` [ethyl acetate], the “Water Miscibility (solubility in water)” value is given as “(8.3 g/100 ml)”.
